Patent US9624235B2, “Compounds and methods for inhibition of AP endonuclease-1/redox factor-1 (HAPE1) activity” (University of Pittsburgh—Of the Commonwealth System of …, priority 2012, dated 2017)
pIC50, pKd, pKi: −log10 of the molar value. Like-named read-outs stand apart in the source and are kept apart here. Where a SMILES comes first, the peptide text is derived from it. The star is where a group is joined. Tos = Cc1ccc(S(=O)(=O)*)cc1; Bn = c1ccc(C*)cc1

Tests used:
[1] = test system: aldehyde reactive sites in genomic DNA from T98G cells; assay type: cell-based, human; conditions: for effect on ARS: 0.25 μM compound alone
Experimental: Quantification of Abasic Sites. T98G cells maintained in growth medium, were harvested by Trypsin-EDTA treatment, resuspended in fresh growth medium at a density of 2.5×10^5 cells mL^−1, and 2 mL (5×10^5 cells) of this suspension was seeded into the wells of a sterile 6-well tissue culture plate. Cells were allowed to grow for 24 h, treated with the various compounds for different time points and/or at different concentrations. At the end of each treatment, adherent cells were harvested by trypsin-EDTA treatment and pooled with live and dead cells in culture supernatant. Pooled cells in suspension were pelleted by centrifugation, washed with 1×PBS and genomic DNA was isolated using the DNAzol reagent (Invitrogen). DNA in solution was quantified by UV absorbance (λ260 nm) using a Synergy H1 multiwell plate reader (BioTek, Winooski, Vt.). Abasic sites in purified DNA were then reacted with the biotin-conjugated aldehyde reactive probe (ARP), immobilized onto 96-well ELISA plates, and detected using horseradish peroxidase (HRP)-conjugated streptavidin using a colorimetric substrate as per manufacturer's instructions (Dojindo Molecular Technologies, Rockville, Md.).
The biotin tagged ARS are quantified using an avidin-biotin assay, followed by colorimetric detection with horseradish peroxidase conjugated to avidin.

[2] = test system: T98G cells; experiment: Short term (72 h) MTS cytotoxicity assay; assay type: cell-based, human; conditions: 72 h MTS assay
Experimental: (§1) Cytotoxic Effects of APE-1 Inhibitors on Cultured Human Glioblastoma (T98G) Cells. Human glioblastoma cells (T98G) were maintained in growth medium as described above. […] The cells were allowed to attach and grow for 24 h, and then treated with serial dilutions of the drug for 72 h. After treatment, viable cells were measured by an MTS assay using the CellTiter 96 AQueous kit (Promega) as per manufacturer's instructions. […] The cells were allowed to attach and grow for 24 h and treated with serial dilutions of the drug for 240 h. After treatment, viable cells were measured using the CyQUANT cell proliferation assay kit (Invitrogen) as per manufacturer's instructions.
(§2) Toxicity. It was assumed that inhibition of APE-1 activity would be lead to toxicity since genetic deletion of the protein is lethal to cells. […] The toxicities were also determined in combination with the DNA minor groove methylating agent, MeLex. MeLex efficiently and selectively generates N3-methyladenine, which is converted into an abasic site by a BER glycosylase and/or hydrolytic depurination. The T98G cell line is relatively resistant to DNA damaging anticancer agents due to expression of multiple drug resistance proteins and O^6-alkylguanine-DNA alkyltransferase. […] A goal of the development of APE-1 inhibitors is to determine if they can be used to enhance the activity of DNA alkylating agents.

[3] = target: T1, APE-1 (Homo sapiens (Human), UniProt P27695); experiment: Gel-based excision assay for APE-1 inhibitors; assay type: biochemical; conditions: APE-1 cleaved fragment vs. full length DNA substrate
T1 sequence (P27695 whole entry, the tested form may be a part): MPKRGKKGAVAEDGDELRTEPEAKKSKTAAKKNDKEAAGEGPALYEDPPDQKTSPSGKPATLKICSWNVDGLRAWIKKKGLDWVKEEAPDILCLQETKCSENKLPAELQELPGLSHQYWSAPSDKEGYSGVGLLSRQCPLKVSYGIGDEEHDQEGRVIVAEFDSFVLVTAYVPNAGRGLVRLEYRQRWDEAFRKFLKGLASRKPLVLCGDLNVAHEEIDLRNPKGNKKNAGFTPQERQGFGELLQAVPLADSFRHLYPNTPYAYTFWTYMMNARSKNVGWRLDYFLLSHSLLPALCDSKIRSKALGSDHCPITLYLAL
Experimental: (§3) Screening for APE-1 Inhibitors. […] In this assay, the DNA hairpin substrate has a 6-FAM fluorophore on the 5′-terminus, a DABACYL fluorescence quencher on the 3′-terminus and a THF abasic site located 6 base pairs from the 5′-terminus in the stem region (FIG. 6). APE-1 activity is monitored as an increase in fluorescence due to the release of the 5′-(6-FAM)-GCACT fragment as a function of time. […] In this assay, substrate turnover was calculated from relative intensities of cleaved vs. intact oligomers and correlated with inhibitor concentration.

[4] = target: APE-1 activity in T98G cell nuclear lysates (Homo sapiens (Human), UniProt P27695); experiment: Molecular beacon assay in T98G cell nuclear extracts; assay type: biochemical
Sequence of APE-1 activity in T98G cell nuclear lysates (P27695 whole entry, stated change not applied): as the sequence (P27695 whole entry, the tested form may be a part) above
Experimental: Isolation and Assay of APE-1 Protein from Nuclear Extracts of Glioma Cells. Human glioblastoma cells (T98G) were maintained in growth medium, i.e., Eagle's Minimum Essential Medium (EMEM) with 10% fetal bovine serum (FBS), […] gentamycin, 1×MEM non-essential amino acids and 1 mM sodium pyruvate. Cells were harvested by Trypsin-EDTA treatment, washed with 1×PBS and nuclear proteins isolated using the CelLytic NuCLEAR Extraction kit (Sigma-Aldrich) as per manufacturer's instructions. Isolated nuclear proteins were estimated colorimetrically (BCA protein assay) and stored at −80° C. (long term) or at −20° C. during regular use. To assay APE-1 activity in T98G cells, nuclear extracts were serially diluted in 10 mM HEPES, 50 mM KCl, 1 mM DTT, 20% (v/v) glycerol and the activities measured via the molecular beacon assay (as described above). […] EC2 nM of nuclear extracts was incubated with 2 to 500 nM hairpin DNA substrate and the V0 measured for each value of [S]. Finally, the apparent KM* was deduced using the software algorithm in Prism (as described previously), and the KM* was used to determine the apparent Ki*. Inhibition of EC2 nM APE-1 activity by the inhibitors was assayed via the molecular beacon assay (described above).
Inhibition of APE-1 Activity in Nuclear Lysates. The ability of 1-5 and 8 to block APE-1 endonuclease activity in a complex mixture of proteins from T98G cell nuclear lysates was tested using the molecular beacon assay. The APE-1 activity in the lysates was standardized to give ˜90% turnover of 25 nM substrate in 10 min.

[5] = target: T1, APE-1; experiment: Molecular beacon assay for APE-1 endonuclease inhibition; assay type: biochemical; conditions: molecular beacon assay, endonuclease activity
Description: Screening Assays for APE1 Inhibition—The initial screen was designed to look at the effect of potential inhibitors on APE1 repair kinetics. The approach can be used as a high throughput screen by choosing a specific timepoint to monitor. The screen utilizes a molecular beacon with a tetrahydrofuran (THF) abasic site within the stem region of a DNA hairpin that has a fluorophore on the 5′-terminus and a quencher on the 3′-terminus (FIG. 2a). […] An example of the molecular beacon screen and the excision assay are shown in FIGS. 2b,c and 2d, respectively.
Molecular Beacon Assay for Screening of APE-1 Inhibitors. A fluorescence-based molecular beacon assay to measure APE-1 protein activity and inhibition was performed as described previously with some modifications. Tang et al. Neuro Oncol. 13, 471-486 (2011) APE-1 (2 nM) in 10 mM HEPES (pH 7.8) 0.5 mM MgCl, 100 mM NaCl, 100 mM KCl, 0.0005% (w/v) BSA, was incubated with 20 nM 5′-(F)-CGACTXTTGAATTGACACGCCATGTCGATCAATTCAATAGTCG-(D)-3′ [X=tetrahydrofuran (THF) abasic site modification; F, 6-carboxyfluorescein (6-FAM); and D, DABCYL] that forms a hairpin with a 15 base pair stem and a 13 base loop. The THF modification is a known substrate for APE-1 excision. APE-1 mediated cleavage of the phosphodiester backbone at the THF-abasic site led to release of the 5′ 6-FAM (fluorophore) containing pentanucleotide, disrupting the Förster Resonance Energy Transfer (FRET) mediated quenching of the 6-FAM by DABCYL in the native hairpin oligomer. Since the signal was generated by continuous liberation of the fluorophore-labeled excision fragment, progress of this reaction could be monitored in real-time using a Cary Eclipse fluorescence spectrometer (Varian, Palo Alto, Calif.) or a Synergy H1 multi-well plate reader (BioTek, Winooski, Vt.). Reactions were optimized to yield ˜90% substrate turnover in 10 min, and fluorescence intensities measured every 12 s at 495 nm excitation and 520 nm emission. Data from the first 1-3 min of the assays (linear phase) were used to determine rate of substrate turnover (V0). The Michaelis constant (KM) was deduced experimentally, by incubating 2 nM APE-1 protein with 2-500 nM hairpin DNA substrate and measuring V0 —the experimentally observed V0 were analyzed as a function of substrate concentration [S] via non-linear regression using Prism (v.4; GraphPad Software, Inc., La Jolla, Calif.) and the KM was calculated as per the algorithm in the software package. To assay inhibition, 2 nM APE-1 protein was pre-incubated with 0.05-10.00 μM of the candidate inhibitors at 25° C. for 60 min, before initiating the excision assay by addition of hairpin DNA substrate. V0 was calculated at various concentrations of inhibitors and represented as inverse function of increasing inhibitor concentration [I]. […] All assays were carried out in three independent sets to obtain mean data and standard error of mean.
as §3

[6] = test system: T98G cells; experiment: Long term (10-day) CyQUANT cytotoxicity assay; assay type: cell-based, human; conditions: long term assay
Experimental: as §1, §2

[7] = test system: T98G cells; experiment: Potentiation of MeLex cytotoxicity, long term (10 d) CyQUANT assay; assay type: cell-based, human
Experimental: (§4) Cytotoxic Potentiation of Various DNA Damaging Agents. T98G cells maintained in growth medium were resuspended in fresh growth medium and seeded into 96-well plates at 2000 cells/well (short term cytotoxicity) or 100 cells/well (long term cytotoxicity) as described in the previous section. After 24 h, the cells were treated with serial dilutions of various DNA damaging drugs in absence or presence of APE-1 inhibitors. At the end of the treatment period, cell survival was assayed using CellTiter 96 AQueous or CyQUANT kits for the short- and long-term studies respectively.
as §2

[8] = test system: T98G cells; experiment: Potentiation of MeLex cytotoxicity, short term (72 h) MTS assay; assay type: cell-based, human; conditions: 72 h MTS assay
Experimental: as §4, §2

[9] = target: unmodified hairpin DNA; experiment: EtBr fluorescence titration with hairpin DNA; assay type: binding
Experimental: (§5) Fluorescence and UV Spectrometry Binding Studies. The fluorescence spectra were measured at room temperature on a Cary Eclipse fluorescence spectrometer (Varian, Palo Alto, Calif.). The fluorescence properties of 1 and 4 were measured in 10 mM HEPES, 0.5 mM MgCl2, 100 mM KCl, 100 mM NaCl, 2% glycerol, in absence or presence of wild type (unmodified) hairpin DNA (5′-[…]-3′) or THF-modified hairpin DNA (5′-[…]-3′) or APE-1 protein. A solution of 0.5 μM of either DNA sequence was titrated against 1-10 μM ethidium bromide (EtBr) to determine saturation of EtBr by fluorescence (530 nm excitation with 610 nm emission) and the subsequent displacement of EtBr (4 μM) by 1-20 μM 1 or 4 was also assayed. The APE protein-inhibitor binding fluorescence was assayed by titrating 0.1-20 μM of 4 against 1 μM of APE-1 protein.
(§6) Interaction of Inhibitors with DNA. A potential mechanism by which compounds can block APE-1 activity involves the interaction with the DNA substrate by intercalation. Such binding to DNA could sterically reduce the accessibility of the protein to the abasic site substrate. […] To further probe the potential role of intercalation, the effect of EtBr on the fluorescence of 1 and 4 were determined. […] The small changes in the fluorescence of 4 with both DNAs indicate little discrimination for the THF lesion.

[10] = target: THF modified hairpin DNA; experiment: EtBr fluorescence titration with hairpin DNA; assay type: binding
Experimental: as §5, §6

[11] = target: double-stranded DNA; conditions: cited from earlier work
[12] = read-out: Ki APE-1 endonuclease inhibition
[13] = read-out: Ki APE-1 endonuclease inhibition (ND classes)

Row | pKi [5, 12] | pKi [5, 13] | Structure (SMILES) | other results
1 | 6.66 |  | COc1cccc(/C=N/Nc2cc(C)nc3cc4c(cc23)OCO4)c1 [Compound 2] | pIC50 [3]: 5.00; pKi [4]: 6.62
2 | 6.19 |  | Cc1cc(N/N=C/c2ccc([N+](=O)[O-])o2)c2cc3c(cc2n1)OCO3 [Compound 6] | 
3 | 4.96 |  | C/C(=N\Nc1cc(C)nc2ccc(C)cc12)c1cn(C)n(-c2ccccc2)c1=O [Compound 7] | 
4 | 4.89 |  | C=C(C[N+](=O)[O-])NC(CCCCNc1ccc([N+](=O)[O-])cc1N(O)O)C(=O)O (stereo not shown) [Compound 9] | 
5 | 4.77 |  | C/C=C/C(=O)NCCCCNC(=O)/C=C/c1ccc([N+](=O)[O-])cc1 [Compound 10] | 
6 | 5.17 |  | COc1ccc(/C(Cc2ccccc2)=N\Nc2ccc([N+](=O)[O-])c([N+](=O)[O-])c2)cc1 [Compound 11] | 
7 | 4.49 |  | COc1ccc(C2C3=C(CC(C)(C)CC3=O)Oc3cc4c(cc32)OCO4)c(OC)c1 (stereo not shown) [Compound 12] | 
8 | 5.31 |  | N=c1[nH]nc2nc(CC(=O)c3ccccc3[N+](=O)[O-])c(CC(=O)c3ccccc3[N+](=O)[O-])nn12 [Compound 13] | 
9 | 4.43 |  | O=C(/C=C(/Nc1ccccc1)C(=O)c1ccccc1)c1ccccc1 [Compound 14] | 
10 |  | < 4.00 | O=C(NNc1ccnc2cc(Cl)ccc12)/C(=C/c1ccccc1Cl)NC(=O)c1ccccc1 [Compound 15] | 
11 |  | < 4.00 | Nc1ncnc2c1ncn2C1OC(C(=O)NCC(=O)O)C(O)C1O (stereo not shown) [Compound 16] | 
12 |  | < 4.00 | CC(N)C(=O)NC1C(CO)OC(n2cnc3c(N)ncnc32)C1O (stereo not shown) [Compound 17] | 
13 |  | < 4.00 | O=C(O)CC1(CC(=O)NCCc2c[nH]c3ccccc23)OCCO1 [Compound 18] | 
14 |  | < 4.00 | O=C(O)C(Cc1c[nH]c2ccc(O)cc12)NCC1(O)OCC(O)C(O)C1O (stereo not shown) [Compound 19] | 
15 |  | < 4.00 | Cn1c(=N)[nH]c2c(nc(OCc3ccccc3)n2C2OC(O)C(O)C2O)c1=O (stereo not shown) [Compound 21] | 
16 |  | < 4.00 | CC(NC(=O)/C(=C/c1ccccc1)NC(=O)c1ccccc1)c1ccccc1 (stereo not shown) [Compound 22] | 
17 |  | < 4.00 | Cc1ccc(S(=O)(=O)NC(CSCc2ccccc2)C(=O)NC(Cc2ccc(O)cc2)C(=O)O)cc1 (stereo not shown) [Compound 25] (Tos-Cys(Bn)-Tyr-OH; configuration not given here) | 
18 |  | < 4.00 | CCOC(=O)CC/C(=C\NC(=O)c1ccccc1)NC(=O)c1ccccc1 [Compound 26] | 
19 |  | < 4.00 | Cc1cc2cc3c(cc2n2c(SCC(=O)N4c5ccccc5CCc5ccccc54)nnc12)OCO3 [Compound 28] | 
20 |  | < 4.00 | CCc1cc2cc(C)c(C)cc2nc1SCC(=O)N1CCN(C(=O)c2ccco2)CC1 [Compound 29] | 
21 |  | < 4.00 | CC(=O)N1N=C(c2cccc(NS(C)(=O)=O)c2)CC1c1cc2cc(C)c(C)cc2nc1Cl (stereo not shown) [Compound 30] | 

Row | Structure (SMILES) | pKi [5, 12] | pKi [5, 13] | other results
22 | C/C(=N\Nc1cc(C)nc2cc3c(cc12)OCO3)c1cn(C)n(-c2ccccc2)c1=O [Compound 1] | 6.74 |  | level of ARS in combination with MeLex ([1]; 80 μM MeLex + 0.25 μM inhibitor, through at least 12 h): 50 sites/10^5 nucleotides; LD10 concentration [2]: 2.20 µM; pIC50 [3]: 5.36; pKi [4]: 6.35; LD10 concentration [6]: 0.17 µM; LD50 of MeLex in the presence of LD10 concentration of inhibitor [7]: 2.0 µM; LD50 of MeLex in the presence of LD10 concentration of inhibitor [8]: 54 µM
23 | C/C(=N\Nc1cc(C)c2ccccc2n1)c1cn(C)n(-c2ccccc2)c1=O [Compound 8] |  | < 4.00 | effect on ARS [1]: same as background; pIC50 [3]: < 4.00
24 | CC[n+]1c(-c2ccccc2)c2cc(N)ccc2c2ccc(N)cc21 [EtBr, ethidium bromide] | 5.74 |  | effect on ARS [1]: no effect; level of ARS in combination with MeLex ([1]; 80 μM MeLex + 0.25 μM compound, after 6 h): dropped off; pKd [9]: 5.80; pKd [10]: 5.74; pKd [11]: ~6.00
